From article PMC3724985, “Isolation, biochemical characterization, and cloning of a bacteriocin from the poultry-associated Staphylococcus aureus strain CH-91” (Applied Microbiology and Biotechnology, 2012) come the findings set out here.

What is called MIC is the least concentration at which growth counts as inhibited. Lower therefore signals inhibition by little substance.

Values after ≈ are worked out from the molar mass of the structure shown. Bounds are passed on as bounds.

One assay concerns staphylococcal strains. The format is cell-based, Staphylococcus spp. An excerpt: S. aureus CH-91 was kindly provided by S. Takeuchi from Fukui Prefectural University, Japan (Takeuchi et al. [1999]). The strain has been deposited in the DSMZ collection under the number DSM 26258. Bacillus licheniformis NCTC 7224, Bacillus subtilis ATCC 6633, Lactococcus lactis subsp. lactis LOCK 0869, Micrococcus luteus strains DSMZ 20030 and CBM (clinical isolate), Sarcina lutea ATCC 9341, S. aureus strains ATCC 25923, M-122 (Polakowska et al. [2012]), Newman and RN4220, S. epidermidis ATCC 35347, Staphylococcus intermedius ATCC 29666, Staphylococcus pseudintermedius LMG 22219 (Devriese et al. [2005]), Staphylococcus saprophyticus ATCC 49453, Staphylococcus xylosus strains isolated from the skin of healthy chickens, Streptococcus mutans ATCC 25175, Streptococcus pneumoniae ATCC 49619, Escherichia coli K12 ATCC 10798, Klebsiella pneumoniae, Serratia marcescens, and Sphingomonas sp. AMC 3962 (Dziga et al. [2012]) were obtained from the collections of The Faculty of Biochemistry, Biophysics and Biotechnology, Jagiellonian University, Krakow, Poland. […]
The bactericidal activity of BacCH91 was determined using the micro-dilution method in compliance with Clinical and Laboratory Standards Institute guidelines M7-A7 (CLSI [2006]). […] After overnight incubation at 37 °C, the optical density (OD) at 600 nm was measured. […]

Assay [1] concerns Bacillus licheniformis NCTC 7224. It counts as cell-based. The text has this:
(§1) S. aureus CH-91 was kindly provided by S. Takeuchi from Fukui Prefectural University, Japan (Takeuchi et al. [1999]). The strain has been deposited in the DSMZ collection under the number DSM 26258. Bacillus licheniformis NCTC 7224, Bacillus subtilis ATCC 6633, Lactococcus lactis subsp. lactis LOCK 0869, Micrococcus luteus strains DSMZ 20030 and CBM (clinical isolate), Sarcina lutea ATCC 9341, S. aureus strains ATCC 25923, M-122 (Polakowska et al. [2012]), Newman and RN4220, S. epidermidis ATCC 35347, Staphylococcus intermedius ATCC 29666, Staphylococcus pseudintermedius LMG 22219 (Devriese et al. [2005]), Staphylococcus saprophyticus ATCC 49453, Staphylococcus xylosus strains isolated from the skin of healthy chickens, Streptococcus mutans ATCC 25175, Streptococcus pneumoniae ATCC 49619, Escherichia coli K12 ATCC 10798, Klebsiella pneumoniae, Serratia marcescens, and Sphingomonas sp. AMC 3962 (Dziga et al. [2012]) were obtained from the collections of The Faculty of Biochemistry, Biophysics and Biotechnology, Jagiellonian University, Krakow, Poland. A list of strains used for assessment of the general occurrence of the bacteriocin gene is provided in the Electronic supplementary materials (ESM; Table S1). Gram-positive and Gram-negative bacteria were maintained at 37 °C in tryptic soy broth (TSB) and Luria-Bertani broth (both obtained from Sigma), respectively.
(§2) The bactericidal activity of BacCH91 was determined using the micro-dilution method in compliance with Clinical and Laboratory Standards Institute guidelines M7-A7 (CLSI [2006]). Briefly, the bacteria were either cultivated in cation-adjusted MHB to the early exponential phase or grown overnight on agar-solidified MHB supplemented with 2.5 % LHB in the case of Streptococcus spp. and L. lactis. Subsequently, the bacteria were diluted to 1 × 10^6 CFU/ml either in MHB or in MHB supplemented with 5 % LHB, in the case of the latter bacteria. Fifty-microliter portions of bacterial suspension were mixed with an equal volume of MHB containing serial twofold dilutions of bacteriocin. After overnight incubation at 37 °C, the optical density (OD) at 600 nm was measured. The MIC was defined as the minimum bacteriocin concentration for which the increase in OD was not observed compared to uninoculated broth.

The subject of assay [2] is Bacillus subtilis ATCC 6633. It counts as cell-based.
From the text: as §1, §2

In assay [3] the test system is Escherichia coli K12 ATCC 10798. The format is cell-based.
From the text: as §1, §2

The next assay has as its system Klebsiella pneumoniae. The format is cell-based.
From the text: as §1, §2

The next assay relates to Sarcina lutea ATCC 9341. The format is cell-based.
From the text: as §1, §2

The test system of another assay is Serratia marcescens. It counts as cell-based.
From the text: as §1, §2

For assay [4], the system named is Sphingomonas sp. AMC 3962. It counts as cell-based.
From the text: as §1, §2

The test system of assay [5] is Staphylococcus aureus ATCC 25923. It counts as cell-based.
From the text: as §1, §2

In assay [6] the test system is Staphylococcus aureus CH91. It counts as cell-based.
From the text: as §1, §2

In assay [7] the test system is Staphylococcus aureus M-122. The format is cell-based.
From the text: as §1, §2

Assay [8] concerns Staphylococcus aureus Newman. It counts as cell-based.
From the text: as §1, §2

The subject of assay [9] is Staphylococcus aureus RN4220. The format is cell-based. The note with it: Staphylococcus aureus RN4220, bacteriocin gene positive strain; micro-dilution, CLSI M7-A7, cation-adjusted MHB, overnight 37 °C, OD 600 nm.
From the text: as §1, §2

Assay [10] relates to Staphylococcus epidermidis ATCC 35347. It counts as cell-based.
From the text: as §1, §2

For assay [11], the system named is Staphylococcus pseudintermedius LMG 22219. It counts as cell-based.
From the text: as §1, §2

Assay [12] deals with Staphylococcus saprophiticus ATCC 49453. The format is cell-based.
From the text: as §1, §2

The test system of assay [13] is Staphylococcus xylosus kw 2,5. The format is cell-based.
From the text: as §1, §2

In assay [14] the test system is Streptococcus mutans ATCC 25175. The format is cell-based.
From the text: as §1, §2

Assay [15] concerns Streptococcus pneumoniae ATCC 49619. It counts as cell-based.
From the text: as §1, §2

For assay [16], the system named is various S. aureus strains. The format is cell-based.
From the text: as §1, §2

Regarding `C/C=C(\NC(=O)[C@H](CCCCN)NC(=O)CNC(=O)[C@@H]1CS[C@@H](C)[C@@H](NC(=O)[C@@H]2CSC[C@@H](NC(=O)/C(=C/C)NC(=O)[C@@H](N)[C@@H](C)CC)C(=O)N[C@@H](Cc3ccccc3)C(=O)N[C@@H]([C@@H](C)CC)C(=O)NCC(=O)N2)C(=O)N2CCC[C@H]2C(=O)NCC(=O)N1)C(=O)NCC(=O)N[C@@H]1CSC[C@@H]2NC(=O)[C@H](Cc3ccccc3)NC(=O)[C@@H](CS/C=C\NC2=O)NC(=O)[C@H](CC(N)=O)NC(=O)[C@H](Cc2ccccc2)NC1=O` [BacCH91], the minimum inhibitory concentration (MIC) is 1.3 to 6.0 µM against staphylococcal strains; 1.8 µM (≈ 3.74 µg/mL) in [1]; 2.6 µM (≈ 5.4 µg/mL) in assay [2]; over 100 µM in assay [3]; over 100 µM in the assay on Klebsiella pneumoniae; 0.31 µM (≈ 0.644 µg/mL) against Sarcina lutea ATCC 9341. The MIC against Serratia marcescens was over 100 µM; in [4] it was over 100 µM; in assay [5] it was 6.0 µM (≈ 12.5 µg/mL); in [6], 1.3 µM (≈ 2.7 µg/mL); in [7] it was 4.0 µM (≈ 8.31 µg/mL); in [8], 6.0 µM (≈ 12.5 µg/mL). The MIC was 6.0 µM (≈ 12.5 µg/mL) in assay [9]; 1.6 µM (≈ 3.32 µg/mL) in assay [10]; 1.5 µM (≈ 3.11 µg/mL) in assay [11]; 3.0 µM (≈ 6.23 µg/mL) in assay [12]; 1.5 to 2.0 µM in assay [13]; 2.0 µM (≈ 4.15 µg/mL) in [14]. The minimal inhibitory concentration (MIC) in [15] was 1.6 µM (≈ 3.32 µg/mL); in assay [16] it was 6.0 µM (≈ 12.5 µg/mL).
